Target: T1, purified human HDAC6 (Homo sapiens, UniProt Q9UBN7)
T1 construct: purchased BPS Bioscience 5006
T1 sequence (Q9UBN7 1-1215): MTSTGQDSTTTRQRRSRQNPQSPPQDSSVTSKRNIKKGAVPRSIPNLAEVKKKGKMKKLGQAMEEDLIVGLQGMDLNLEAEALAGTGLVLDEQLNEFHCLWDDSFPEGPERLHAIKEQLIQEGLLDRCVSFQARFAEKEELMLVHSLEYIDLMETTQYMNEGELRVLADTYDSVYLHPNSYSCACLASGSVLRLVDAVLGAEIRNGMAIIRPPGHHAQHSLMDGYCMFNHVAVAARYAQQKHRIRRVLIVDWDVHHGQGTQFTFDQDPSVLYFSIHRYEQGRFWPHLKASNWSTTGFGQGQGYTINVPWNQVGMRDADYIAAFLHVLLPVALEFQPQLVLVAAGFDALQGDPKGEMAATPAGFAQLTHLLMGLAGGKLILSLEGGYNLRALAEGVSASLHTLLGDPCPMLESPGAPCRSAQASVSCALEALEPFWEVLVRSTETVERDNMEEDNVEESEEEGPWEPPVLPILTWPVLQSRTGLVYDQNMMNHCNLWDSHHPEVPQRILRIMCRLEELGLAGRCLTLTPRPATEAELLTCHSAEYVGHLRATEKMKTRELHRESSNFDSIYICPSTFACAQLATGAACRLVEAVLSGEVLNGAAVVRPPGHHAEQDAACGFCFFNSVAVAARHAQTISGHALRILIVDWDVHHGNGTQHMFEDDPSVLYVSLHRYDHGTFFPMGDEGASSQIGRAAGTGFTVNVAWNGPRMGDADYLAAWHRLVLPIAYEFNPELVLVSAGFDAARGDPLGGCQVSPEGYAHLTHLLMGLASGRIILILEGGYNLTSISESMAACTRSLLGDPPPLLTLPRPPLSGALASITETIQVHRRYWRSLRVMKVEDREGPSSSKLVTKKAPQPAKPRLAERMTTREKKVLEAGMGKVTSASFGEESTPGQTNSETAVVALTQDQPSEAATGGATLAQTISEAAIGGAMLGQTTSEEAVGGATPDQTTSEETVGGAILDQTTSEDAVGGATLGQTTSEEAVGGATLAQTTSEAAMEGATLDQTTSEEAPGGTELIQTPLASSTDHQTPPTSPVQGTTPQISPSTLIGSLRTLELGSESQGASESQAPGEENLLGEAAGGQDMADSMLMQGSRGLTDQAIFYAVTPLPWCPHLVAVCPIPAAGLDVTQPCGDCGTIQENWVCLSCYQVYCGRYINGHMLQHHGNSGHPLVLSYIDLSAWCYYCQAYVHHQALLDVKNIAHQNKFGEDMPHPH
Assay: HDAC6 Enzyme Assay
Format: biochemical
How it was run: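 Purified human HDAC6 incubated 1 h at 30 °C with Ac-Arg-Gly-Lys(Ac)-AMC peptide and compound; reaction stopped with trichostatin A, then trypsin releases AMC, read by fluorescence (Ex 340/Em 460 nm). IC50 from concentration-response curves relative to DMSO controls.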

First: O=C(NO)c1ccc2c(c1)CCN(C(=O)NC1CCCCC1)C2 [Compound 101, N^2-cyclohexyl-N^6-hydroxy-3,4-dihydroisoquinoline-2,6(1H)-dicarboxamide]
Second: O=C(NO)c1ccc2c(c1)CCCN(C(=O)C1CCCCC1)C2 [Compound 247, 2-(cyclohexylcarbonyl)-N-hydroxy-2,3,4,5-tetrahydro-1H-2-benzazepine-7-carboxamide]
The IC50 of the first is lower: less than 50 nM for the first, 100 to 500 nM for the second.

Compared with O=C(NO)c1ccc2c(c1)CCN(C(=O)Nc1ccccc1-c1ccccc1)C2 [Compound 102, N^2-biphenyl-2-yl-N^6-hydroxy-3,4-dihydroisoquinoline-2,6(1H)-dicarboxamide], O=C(NO)c1ccc2c(c1)CCCN(C(=O)c1ccc(-c3ccccc3)cc1)C2 [Compound 244, 2-(biphenyl-4-ylcarbonyl)-N-hydroxy-2,3,4,5-tetrahydro-1H-2-benzazepine-7-carboxamide] is higher in IC50: less than 50 nM for the first, 100 to 500 nM for the second. The first is the more potent here.

First: CC(NC(=O)N1CCc2cc(C(=O)NO)ccc2C1)c1cccc2ccccc12 (centres unmarked) [Compound 103, N^6-hydroxy-N^2-[1-(1-naphthyl)ethyl]-3,4-dihydroisoquinoline-2,6(1H)-dicarboxamide]
Second: O=C(NO)c1ccc2c(c1)CCCN(C(=O)c1cccc3ccccc13)C2 [Compound 234, N-hydroxy-2-(1-naphthoyl)-2,3,4,5-tetrahydro-1H-2-benzazepine-7-carboxamide]
The IC50 of the first is lower: less than 50 nM for the first, 100 to 500 nM for the second. The first is the more potent here.

CC(C)c1ccc(NC(=O)N2CCc3cc(C(=O)NO)ccc3C2)cc1 [Compound 104, N^6-hydroxy-N^2-(4-isopropylphenyl)-3,4-dihydroisoquinoline-2,6(1H)-dicarboxamide] and Cc1ccc(CNC(=O)N2CCc3cc(C(=O)NO)ccc3C2)cc1 [Compound 105, N^6-hydroxy-N^2-(4-methylbenzyl)-3,4-dihydroisoquinoline-2,6(1H)-dicarboxamide] cannot be ordered by IC50: less than 50 nM for the first, less than 50 nM for the second.

O=C(NO)c1ccc2c(c1)CCN(C(=O)CC1CC1)C2 [Compound 106, 2-(cyclopropylacetyl)-N-hydroxy-1,2,3,4-tetrahydroisoquinoline-6-carboxamide] and O=C(NO)c1ccc2c(c1)CCCN(C(=O)C1CCCCCC1)C2 [Compound 246, 2-(cycloheptylcarbonyl)-N-hydroxy-2,3,4,5-tetrahydro-1H-2-benzazepine-7-carboxamide] fall in the same range of IC50: 100 to 500 nM for the first, 100 to 500 nM for the second.

O=C(NO)c1ccc2c(c1)CCN(Cc1cccc(OC(F)(F)F)c1)C2 [Compound 109, N-hydroxy-2-[3-(trifluoromethoxy)benzyl]-1,2,3,4-tetrahydroisoquinoline-6-carboxamide] and O=C(NO)c1ccc2c(c1)CCN(CCOc1ccc(Cl)cc1)C2 [Compound 111, 2-[2-(4-chlorophenoxy)ethyl]-N-hydroxy-1,2,3,4-tetrahydroisoquinoline-6-carboxamide] fall in the same range of IC50: 100 to 500 nM for the first, 100 to 500 nM for the second.

CC(c1ccccc1)N1CCc2cc(C(=O)NO)ccc2C1 (centres unmarked) [Compound 110, N-hydroxy-2-(1-phenylethyl)-1,2,3,4-tetrahydroisoquinoline-6-carboxamide] and O=C(NO)c1ccc2c(c1)CCCN(C(=O)c1cnc3ccccc3n1)C2 [Compound 243, N-hydroxy-2-(quinoxalin-2-ylcarbonyl)-2,3,4,5-tetrahydro-1H-2-benzazepine-7-carboxamide] fall in the same range of IC50: 100 to 500 nM for the first, 100 to 500 nM for the second.

O=C(NO)c1ccc2c(c1)CCN(S(=O)(=O)c1csc(-c3ccon3)c1)C2 [Compound 112, N-hydroxy-2-[(5-isoxazol-3-yl-3-thienyl)sulfonyl]-1,2,3,4-tetrahydroisoquinoline-6-carboxamide] and O=C(NO)c1ccc2c(c1)CCCN(C(=O)Cc1csc3ccc(Cl)cc13)C2 [Compound 251, 2-[(5-chloro-1-benzothien-3-yl)acetyl]-N-hydroxy-2,3,4,5-tetrahydro-1H-2-benzazepine-7-carboxamide] fall in the same range of IC50: 100 to 500 nM for the first, 100 to 500 nM for the second.

Compared with Cc1cccc(C)c1NC(=O)CN1CCc2cc(C(=O)NO)ccc2C1 [Compound 116, 2-{2-[(2,6-dimethylphenyl)amino]-2-oxoethyl}-N-hydroxy-1,2,3,4-tetrahydroisoquinoline-6-carboxamide], O=C(NO)c1ccc2c(c1)CCCN(C(=O)c1cc3ccccc3s1)C2 [Compound 239, 2-(1-benzothien-2-ylcarbonyl)-N-hydroxy-2,3,4,5-tetrahydro-1H-2-benzazepine-7-carboxamide] is lower in IC50: 50 to 100 nM for the first, less than 50 nM for the second.

Compared with O=C(NO)c1ccc2c(c1)CCCN(C(=O)C13CC4CC(CC(C4)C1)C3)C2 [Compound 232, 2-(1-adamantylcarbonyl)-N-hydroxy-2,3,4,5-tetrahydro-1H-2-benzazepine-7-carboxamide], O=C(NO)c1ccc2c(c1)CCN(C(=O)C13CC4CC(CC(O)(C4)C1)C3)C2 [Compound 248, N-hydroxy-2-[(3-hydroxy-1-adamantyl)carbonyl]-1,2,3,4-tetrahydroisoquinoline-6-carboxamide] is lower in IC50: 100 to 500 nM for the first, less than 50 nM for the second.

First: Cn1ccc(C(=O)N2CCCc3cc(C(=O)NO)ccc3C2)n1 [Compound 233, N-hydroxy-2-[(1-methyl-1H-pyrazol-3-yl)carbonyl]-2,3,4,5-tetrahydro-1H-2-benzazepine-7-carboxamide]
Second: Cc1cc(C(=O)N2CCCc3cc(C(=O)NO)ccc3C2)no1 [Compound 245, N-hydroxy-2-[(5-methylisoxazol-3-yl)carbonyl]-2,3,4,5-tetrahydro-1H-2-benzazepine-7-carboxamide]
The IC50 of the first is higher: greater than 500 nM for the first, 100 to 500 nM for the second. The second is the more potent here.

COc1ccc(C(=O)N2CCCc3cc(C(=O)NO)ccc3C2)cc1 [Compound 235, N-hydroxy-2-(4-methoxybenzoyl)-2,3,4,5-tetrahydro-1H-2-benzazepine-7-carboxamide] and CC(C)(C)c1ccc(C(=O)N2CCCc3cc(C(=O)NO)ccc3C2)cc1 [Compound 238, 2-(4-tert-butylbenzoyl)-N-hydroxy-2,3,4,5-tetrahydro-1H-2-benzazepine-7-carboxamide] fall in the same range of IC50: 100 to 500 nM for the first, 100 to 500 nM for the second.

First: O=C(NO)c1ccc2c(c1)CCCN(C(=O)Cc1cc(C(F)(F)F)cc(C(F)(F)F)c1)C2 [Compound 236, 2-{[3,5-bis(trifluoromethyl)phenyl]acetyl}-N-hydroxy-2,3,4,5-tetrahydro-1H-2-benzazepine-7-carboxamide]
Second: O=C(NO)c1ccc2c(c1)CCCN(C(=O)c1c(F)cc(F)cc1F)C2 [Compound 241, N-hydroxy-2-(2,4,6-trifluorobenzoyl)-2,3,4,5-tetrahydro-1H-2-benzazepine-7-carboxamide]
The IC50 of the first is higher: greater than 500 nM for the first, 100 to 500 nM for the second. The second is the more potent here.

Compared with CC(C)(C)OC(=O)Nc1ccc(-c2cc(C(=O)N3CCc4cc(C(=O)NO)ccc4C3)no2)cc1 [Compound 237, tert-butyl[4-(3-{[6-[(hydroxyamino)carbonyl]-3,4-dihydroisoquinolin-2(1H)-yl]carbonyl}isoxazol-5-yl)phenyl]carbamate], COc1cccc2cc(C(=O)N3CCCc4cc(C(=O)NO)ccc4C3)oc12 [Compound 242, N-hydroxy-2-[(7-methoxy-1-benzofuran-2-yl)carbonyl]-2,3,4,5-tetrahydro-1H-2-benzazepine-7-carboxamide] is lower in IC50: 50 to 100 nM for the first, less than 50 nM for the second.

O=C(NO)c1ccc2c(c1)CCCN(C(=O)c1cc3cc(Cl)ccc3[nH]1)C2 [Compound 240, 2-[(5-chloro-1H-indol-2-yl)carbonyl]-N-hydroxy-2,3,4,5-tetrahydro-1H-2-benzazepine-7-carboxamide] and Cc1ccc2[nH]c(C(=O)N3CCCc4cc(C(=O)NO)ccc4C3)cc2c1 [Compound 253, N-hydroxy-2-[(5-methyl-1H-indol-2-yl)carbonyl]-2,3,4,5-tetrahydro-1H-2-benzazepine-7-carboxamide] cannot be ordered by IC50: less than 50 nM for the first, less than 50 nM for the second.

First: O=C(NO)c1ccc2c(c1)CCCN(C(=O)c1cc3ccccc3o1)C2 [Compound 250, 2-(1-benzofuran-2-ylcarbonyl)-N-hydroxy-2,3,4,5-tetrahydro-1H-2-benzazepine-7-carboxamide]
Second: O=C(NO)c1ccc2c(c1)CCCN(C(=O)c1ccc3occc3c1)C2 [Compound 252, 2-(1-benzofuran-5-ylcarbonyl)-N-hydroxy-2,3,4,5-tetrahydro-1H-2-benzazepine-7-carboxamide]
The IC50 of the first is lower: less than 50 nM for the first, 100 to 500 nM for the second. The first is the more potent here.

From US9096518B2, “Substituted hydroxamic acids and uses thereof” (Millennium Pharmaceuticals, Inc., priority 2009, dated 2015)
